Results reported in patent publication US10703748B2, “Diazanaphthalen-3-yl carboxamides and preparation and use thereof” (Samumed, LLC, priority 2017, dated 2020).
Read-outs that look alike come from different tables or passages of the source.

Experiments:
DYRK1A kinase = DYRK1A kinase (Homo sapiens, UniProt Q13627); test: DYRK1A kinase activity (Ser/Thr 18 peptide Z-lyte FRET assay); type: biochemical; conditions: recombinant DYRK1A, 30 μM ATP, one hour at room temperature;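 also: kinase activity read as coumarin/fluorescein emission ratio after development step, with unphosphorylated and phosphorylated peptide forms setting 0% and 100% controls, values from dose-response curves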
Experimental: Representative compounds were screened using the assay procedure for DYRK1A kinase activity as described below.
Each compound was dissolved in DMSO as a 10 mM stock and used to prepare compound source plates.
This is a non-radioactive assay using fluorescence resonance energy transfer (FRET) between coumarin and fluorescein to detect kinase activity which is represented as a ratio of coumarin emission/fluorescein emission.
The mixture was allowed to incubate with the representative compounds for one hour at room temperature. All reactions were performed in duplicate. Unphosphorylated (“0% Control”) and phosphorylated (“100% control”) forms of Ser/Thr 18 served as control reactions. Additionally, an 11-point dose-response curve of Staurosporine (1 uM top) was run to serve as a positive compound control.
After incubation, Development Reagent A was diluted in Development Buffer then added to the reaction and allowed to further incubate for one hour at room temperature.
Dose-response curves were generated and inhibitory concentration (IC50) values were calculated using non-linear regression curve fit in the Dotmatics' Studies Software (Bishops Stortford, UK).

GSK3β kinase = GSK3β kinase (Homo sapiens, UniProt P49841); test: GSK3β kinase activity (Ser/Thr 09 peptide Z-lyte FRET assay); type: biochemical; conditions: recombinant kinase, 46 μM ATP, one hour at room temperature; read-out: EC50
Experimental: Each compound is dissolved in DMSO as a 10 mM stock and used to prepare compound source plates. Serial dilution (1:3, 11-point dose-response curves from 10 μM to 0.0003 μM) and compound transfer was performed using the ECHO 550 (Labcyte, Sunnyvale, Calif.) into 1536-well black-walled round bottom plates (Corning).
This is a non-radioactive assay using fluorescence resonance energy transfer (FRET) between coumarin and fluorescein to detect kinase activity which is represented as ratio of coumarin emission/fluorescein emission.
The mixture is allowed to incubate with the representative compounds for one hour at room temperature. All reactions were performed in duplicate. Unphosphorylated (“0% Control”) and phosphorylated (“100% control”) forms of Ser/Thr 18 serve as control reactions.
After incubation, diluted Development Buffer is added to the reaction and allowed to further incubate for one hour at room temperature.
Dose-response curves are generated and inhibitory concentration (IC50) values are calculated using non-linear regression curve fit in the Dotmatics' Studies Software (Bishops Stortford, UK).

[1] = tested on: secreted cytokines TNFα, IL-6 and KC-GRO; test: Secreted cytokines in Lipopolysaccharide-stimulated BV-2 cells (Table 9 does not say which cytokine); type: cell-based, mouse; conditions: read-out: EC50
[2] = tested on: SW480 colon carcinoma cells; test: Cell viability assay (CellTiter-Glo); conditions: for inhibition at 10 µM: SW480, read-out: percent inhibition at 10 μM
[3] = tested on: Wnt-responsive Sp5-Luc reporter in SW480 colon carcinoma cells; test: Screening assay for Wnt activity (Sp5-Luc reporter gene assay); conditions: for inhibition at 10 µM: SW480, read-out: percent inhibition at 10 μM
IL-6 = IL-6 inhibition in LPS-stimulated human peripheral blood mononuclear cells (HTRF); conditions: Homo sapiens, PBMC; for EC50: 22 h; for inhibition at 10 µM: read-out: percentage in parentheses after EC50 >10
[4] = tested on: α-smooth muscle actin (aSMA) positive LL29 cells; test: Inhibition of the fibrotic process: αSMA staining in TGF-β1 treated LL29 fibroblasts from IPF patients; conditions: for inhibition at 10 µM: read-out: percentage in parentheses after EC50 >10

GSK3β kinase, sequence (P49841 whole entry): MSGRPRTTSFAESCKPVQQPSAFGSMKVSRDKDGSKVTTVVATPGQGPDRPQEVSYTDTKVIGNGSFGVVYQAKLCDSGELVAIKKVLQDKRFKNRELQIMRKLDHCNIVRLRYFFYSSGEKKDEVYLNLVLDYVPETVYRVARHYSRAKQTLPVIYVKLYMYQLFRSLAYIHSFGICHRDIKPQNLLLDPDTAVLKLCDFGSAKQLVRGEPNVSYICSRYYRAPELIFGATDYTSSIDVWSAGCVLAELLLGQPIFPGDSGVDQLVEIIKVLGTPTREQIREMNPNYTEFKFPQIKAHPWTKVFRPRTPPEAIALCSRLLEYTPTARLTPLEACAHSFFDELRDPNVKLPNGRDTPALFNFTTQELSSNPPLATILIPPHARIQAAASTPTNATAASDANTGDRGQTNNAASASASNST

EC50 (DYRK1A kinase) [nM]	EC50 (GSK3β kinase) [nM]	EC50 ([1]; Mus musculus, BV-2, 5 h) [nM]	EC50 ([2]; Homo sapiens, SW480, 96 h) [nM]	EC50 ([3]; Homo sapiens, SW480) [nM]	EC50 (IL-6) [nM]	EC50 ([1]; BV-2 cells, LPS 250 ng/mL 5 hours, compounds overnight, 10 μM to […], cytokine not named in Table 9) [nM]	EC50 ([2]; SW480 cells, four days, CellTiter-Glo) [nM]	EC50 ([3]; SW480 Sp5-Luc reporter cells, 36 to 48 hours) [nM]	SMILES	EC50 ([4]; Homo sapiens, Fibroblast, 96 h) [nM]	inhibition at 10 µM ([2]; Homo sapiens) [%]	inhibition at 10 µM ([3]; Homo sapiens) [%]	inhibition at 10 µM (IL-6) [%]	inhibition at 10 µM ([4]; Homo sapiens, Fibroblast) [%]	percent inhibition at 10 μM ([2]; at 10 μM, given for EC50 of >10 μM, SW480 cell viability) [%]	percent inhibition at 10 μM ([3]; at 10 μM, given for EC50 of >10 μM, SW480 Sp5-Luc reporter) [%]	EC50 ([4]; LL29 fibroblasts from IPF patients, TGF-β1 20 ng/mL, 4 days, curves from 10 μM to 0.94 nM) [nM]	percentage in parentheses after EC50 >10 ([4]; LL29 fibroblasts, TGF-β1, given beside >10 μM, meaning not given) [%]
5	2000	212	535	259	3250	–	–	–	CN1CCC(Oc2ccc(C(=O)Nc3cc4nc(-c5cnn(C)c5)ccc4cn3)cc2)CC1 [Compound 145, N-(2-(1-methyl-1H-pyrazol-4-yl)-1,6-naphthyridin-7-yl)-4-((1-methylpiperidin-4-yl)oxy)benzamide]	369	–	–	–	–	–	–	–	–
7	> 10000	122	311	102	2200	–	–	–	CN1CCN(c2cc(C(=O)Nc3cc4nc(-c5cnn(C)c5)ccc4cn3)ccn2)CC1 [Compound 147, N-(2-(1-Methyl-1H-pyrazol-4-yl)-1,6-naphthyridin-7-yl)-2-(4-methylpiperazin-1-yl)isonicotinamide]	410	–	–	–	–	–	–	–	–
2	571	88	3680	498	3680	–	–	–	CN1CCN(c2ccc(C(=O)Nc3cc4nc(-c5cnn(C)c5)ccc4cn3)cn2)CC1 [Compound 151, N-(2-(1-Methyl-1H-pyrazol-4-yl)-1,6-naphthyridin-7-yl)-6-(4-methylpiperazin-1-yl)nicotinamide]	432	–	–	–	–	–	–	–	–
10	2270	2400	> 10000	> 10000	> 10000	–	–	–	O=C(Nc1cc2cc(-c3cncc(NCC4(F)CNC4)n3)cnc2cn1)C1CC1 [Compound 3591, N-(3-(6-(((3-Fluoroazetidin-3-yl)methyl)amino)pyrazin-2-yl)-1,7-naphthyridin-6-yl)cyclopropanecarboxamide]	–	6.1	1.3	4.4	–	–	–	–	–
56	1470	–	7870	> 10000	> 10000	–	–	–	CN1CCCN(c2cc(C(=O)Nc3cc4cc(-c5cn(C)nn5)ncc4cn3)ccn2)CC1 [Compound 4006, 2-(4-Methyl-1,4-diazepan-1-yl)-N-(6-(1-methyl-1H-1,2,3-triazol-4-yl)-2,7-naphthyridin-3-yl)isonicotinamide]	> 10000	–	37.7	8.9	5.2	–	–	–	–
53	5140	–	> 10000	2850	> 10000	–	–	–	CC(C)Oc1ccc(C(=O)Nc2cc3cc(-c4cnc5n4CCNC5)ncc3cn2)cc1 [Compound 4150, 4-Isopropoxy-N-(6-(5,6,7,8-tetrahydroimidazo[1,2-a]pyrazin-3-yl)-2,7-naphthyridin-3-yl)benzamide]	3570	32.7	–	4.6	–	–	–	–	–
3200	127	–	> 10000	> 10000	> 10000	–	–	–	CC(F)(F)CN1CCC(C(=O)Nc2cc3cc(-c4cnco4)ncc3cn2)CC1 [Compound 4167, 1-(2,2-Difluoropropyl)-N-(6-(oxazol-5-yl)-2,7-naphthyridin-3-yl)piperidine-4-carboxamide]	> 10000	11.9	8.9	4.9	43	–	–	–	–
253	> 10000	–	5400	> 10000	> 10000	–	–	–	Cc1nnc(-c2cc3cc(NC(=O)c4ccnc(N5CCN(C)CC5)c4)ncc3cn2)s1 [Compound 4377, N-(6-(5-Methyl-1,3,4-thiadiazol-2-yl)-2,7-naphthyridin-3-yl)-2-(4-methylpiperazin-1-yl)isonicotinamide]	2960	–	28.6	5.7	–	–	–	–	–
2	> 10000	–	2030	2000	> 10000	–	–	–	CN1CCN(c2cc(C(=O)Nc3cc4cc(-c5cncc(N)c5)ncc4cn3)ccn2)CC1 [Compound 4432, N-(6-(5-Aminopyridin-3-yl)-2,7-naphthyridin-3-yl)-2-(4-methylpiperazin-1-yl)isonicotinamide]	1720	–	–	1.4	–	–	–	–	–
35	543	–	> 10000	> 10000	> 10000	–	–	–	Cn1cc(-c2ccc3cnc(NC(=O)[C@H]4CC[C@H](NC(=O)OC(C)(C)C)CC4)cc3n2)cn1 [Compound 4537, tert-Butyl (trans-4-((2-(1-methyl-1H-pyrazol-4-yl)-1,6-naphthyridin-7-yl)carbamoyl)cyclohexyl)carbamate]	5270	4.7	25.3	3	–	–	–	–	–
1030	> 10000	–	> 10000	> 10000	> 10000	–	–	–	CN1CC(COc2cncc(-c3ccc4cnc(NC(=O)c5ccc(F)cc5)cc4n3)n2)C1 [Compound 4564, 4-fluoro-N-(2-(6-((1-methylazetidin-3-yl)methoxy)pyrazin-2-yl)-1,6-naphthyridin-7-yl)benzamide]	> 10000	21.1	33.3	0	26.8	–	–	–	–
1410	665	–	> 10000	3870	> 10000	–	–	–	Cn1nnnc1-c1ccc2cnc(NC(=O)C3CCN(CCC(F)(F)F)CC3)nc2c1 [Compound 4574, N-(7-(1-Methyl-1H-tetrazol-5-yl)quinazolin-2-yl)-1-(3,3,3-trifluoropropyl) piperidine-4-carboxamide]	> 10000	20.2	–	5.7	32.8	–	–	–	–
675	346	–	> 10000	> 10000	> 10000	–	–	–	Cc1ncc(-c2ccc3cnc(NC(=O)C(C)N4CCCCC4)nc3c2)n1C (centres unmarked) [Compound 4576, N-(7-(1,2-Dimethyl-1H-imidazol-5-yl)quinazolin-2-yl)-2-(piperidin-1-yl) propanamide]	> 10000	22.1	35.3	0	38.3	–	–	–	–
175	> 10000	–	> 10000	> 10000	> 10000	–	–	–	CC(C)Oc1ccc(C(=O)Nc2ncc3ccc(-c4cnc5n4CCN(C)C5)cc3n2)cc1 [Compound 4577, 4-Isopropoxy-N-(7-(7-methyl-5,6,7,8-tetrahydroimidazo[1,2-a]pyrazin-3-yl)quinazolin-2-yl)benzamide]	> 10000	19.7	28.9	2.6	42.7	–	–	–	–
35	528	–	> 10000	> 10000	> 10000	–	–	–	N#CC(c1cncc(-c2ccc3cnc(NC(=O)C4CC4)nc3c2)c1)N1CCC(O)CC1 (centres unmarked) [Compound 4594, N-(7-(5-(Cyano(4-hydroxypiperidin-1-yl)methyl)pyridin-3-yl)quinazolin-2-yl)cyclopropanecarboxamide]	3250	15	35.6	2.4	–	–	–	–	–
38	> 10000	–	4570	> 10000	> 10000	–	–	–	CN1CC(COc2cncc(-c3ccc4cnc(NC(=O)c5ccc(F)cc5)nc4c3)n2)C1 [Compound 4595, 4-Fluoro-N-(7-(6-((1-methylazetidin-3-yl)methoxy)pyrazin-2-yl)quinazolin-2-yl)benzamide]	> 10000	–	20.1	5.3	2.8	–	–	–	–
–	–	–	–	–	–	2900	> 10000	> 10000	CN1CCN(c2ncc(C(=O)Nc3cc4cc(-c5cnn(C)c5)ncc4cn3)s2)CC1 [Compound 4602, N-(6-(1-Methyl-1H-pyrazol-4-yl)-2,7-naphthyridin-3-yl)-2-(4-methylpiperazin-1-yl)thiazole-5-carboxamide]	–	–	–	–	–	26.1	10.9	> 10000	14.3

SMILES	EC50 (DYRK1A kinase) [nM]	EC50 (GSK3β kinase) [nM]	EC50 ([1]; Mus musculus, BV-2, 5 h) [nM]	EC50 ([2]; Homo sapiens, SW480, 96 h) [nM]	EC50 ([3]; Homo sapiens, SW480) [nM]	EC50 (IL-6) [nM]	EC50 ([1]; BV-2 cells, LPS 250 ng/mL 5 hours, compounds overnight, 10 μM to […], cytokine not named in Table 9) [nM]	EC50 ([2]; SW480 cells, four days, CellTiter-Glo) [nM]	EC50 ([3]; SW480 Sp5-Luc reporter cells, 36 to 48 hours) [nM]	EC50 ([4]; Homo sapiens, Fibroblast, 96 h) [nM]	inhibition at 10 µM ([2]; Homo sapiens) [%]	inhibition at 10 µM ([3]; Homo sapiens) [%]	inhibition at 10 µM (IL-6) [%]	inhibition at 10 µM ([4]; Homo sapiens, Fibroblast) [%]	percent inhibition at 10 μM ([2]; at 10 μM, given for EC50 of >10 μM, SW480 cell viability) [%]	percent inhibition at 10 μM ([3]; at 10 μM, given for EC50 of >10 μM, SW480 Sp5-Luc reporter) [%]	EC50 ([4]; LL29 fibroblasts from IPF patients, TGF-β1 20 ng/mL, 4 days, curves from 10 μM to 0.94 nM) [nM]	percentage in parentheses after EC50 >10 ([4]; LL29 fibroblasts, TGF-β1, given beside >10 μM, meaning not given) [%]
Cc1nnc(-c2cc3cc(NC(=O)CN4C5CCC4CC5)ncc3cn2)s1 [Compound 4353, 2-(7-Azabicyclo[2.2.1]heptan-7-yl)-N-(6-(5-methyl-1,3,4-thiadiazol-2-yl)-2,7-naphthyridin-3-yl)acetamide]	529	2450	–	> 10000	> 10000	> 10000	–	–	–	> 10000	4.1	2.1	8.5	26.4	–	–	–	–
